Patent US20090275574A1, “NOVEL COMPOUNDS-300” (ASTRAZENECA AB, priority 2008, published 2009)
pEC50: −log10 of the molar value.

Tests used:
[1] = target: T1, hM1 (human Muscarinic receptor subtype 1) (Homo sapiens, UniProt P11229); experiment: Human M1 calcium mobilization FLIPR assay; type: cell-based; conditions: hM1 expressed in CHO cells, intracellular Ca2+ release (FLIPR)
T1 construct: expressed in transfected cells; host or cells: CHO cells (ATCC)
T1 sequence (P11229 1-460): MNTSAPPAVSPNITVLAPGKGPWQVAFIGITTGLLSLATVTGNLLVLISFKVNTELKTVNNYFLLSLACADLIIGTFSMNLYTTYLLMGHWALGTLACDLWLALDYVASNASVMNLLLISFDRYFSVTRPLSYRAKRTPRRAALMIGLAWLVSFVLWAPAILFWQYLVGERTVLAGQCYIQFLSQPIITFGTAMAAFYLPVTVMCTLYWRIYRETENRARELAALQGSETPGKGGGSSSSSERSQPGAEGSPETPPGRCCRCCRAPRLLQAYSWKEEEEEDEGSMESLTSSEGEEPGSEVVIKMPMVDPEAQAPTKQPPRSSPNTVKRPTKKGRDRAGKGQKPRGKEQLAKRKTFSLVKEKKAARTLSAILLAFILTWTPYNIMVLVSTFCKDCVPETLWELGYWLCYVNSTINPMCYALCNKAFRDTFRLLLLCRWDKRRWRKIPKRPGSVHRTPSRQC
Procedure: Human M1, rat M1, Human M3 and Human M5 Calcium Mobilization FLIPR™ Assay The compound activity in the present invention (EC50 or IC50) is measured using a 384 plate-based imaging assay that monitors drug induced intracellular Ca^2+ release in whole cells. Activation of hM1 (human Muscarinic receptor subtype 1, gene bank access NM_000738), rM1 (rat Muscarinic receptor subtype 1, gene bank access NM_080773), hM3 (human Muscarinic receptor subtype 3, gene bank access NM_000740NM_000740) and hM5 (human Muscarinic receptor subtype 5, gene bank access NM_0121258), receptors expressed in CHO cells (Chinese hamster ovary cells, ATCC) is quantified in a Molecular Devices FLIPR IITM instrument as an increase in fluorescent signal. Inhibition of hM3 and hM5 by compounds is determined by the decrease in fluorescent signal in response to 2 nM acetylcholine activation. […] Prior to experiment, the cell culture medium is removed from the plates by inversion. […] Plates are incubated at 37° C. for 60 minutes prior to start the experiment. The incubation is terminated by washing the cells four times in assay buffer, leaving a residual 25 μl buffer per well. Cell plates are then transferred to the FLIPR, ready for compound additions. The day of experiment, acetylcholine and compounds are diluted in assay buffer in three-fold concentration range (10 points serial dilution) for addition by FLIPR instrument. For all calcium assays, a baseline reading is taken for 10 seconds followed by the addition of 12.5 μl of compounds, resulting in a total well volume of 37.5 μl. Data is collected every second for 60 pictures and then every 6 seconds for 20 pictures prior to the addition of agonist. For hM3 and hM5, before agonist addition, a second baseline reading is taken for 10 seconds followed by the addition of 12.5 μl of agonist or buffer, producing a final volume of 50 μl. After agonist stimulation, the FLIPR continues to collect data every second for 60 pictures and then every 6 seconds for 20 pictures. The fluorescence emission is read using filter 1 (emission 510-570 nm) by the FLIPR on board CCD camera. Calcium mobilization output data are calculated as the maximal relative fluorescence unit (RFU) minus the minimal value for both compound and agonist reading frame (except for hM1 and rM1 using only the maximal RFU). Data are analyzed using sigmoidal fits of a non-linear curve-fitting program (XLfit version 4.2.2 Excel add-in version 4.2.2 build 18 math 1Q version 2.1.2 build 18). All pEC50 and pIC50 values are reported as arithmetic means±standard error of mean of ‘n’ independent experiments.

cloned human M2 receptor = target: T2, cloned human M2 receptor (Homo sapiens, UniProt P08172); experiment: hM2 receptor GTPγS binding; type: biochemical; conditions: CHO membranes expressing hM2, [35S]GTPγS binding
T2 construct: purchased Perkin-Elmer RBHM2M; host or cells: Chinese hamster ovary cells (CHO), membranes
T2 sequence (P08172 1-466): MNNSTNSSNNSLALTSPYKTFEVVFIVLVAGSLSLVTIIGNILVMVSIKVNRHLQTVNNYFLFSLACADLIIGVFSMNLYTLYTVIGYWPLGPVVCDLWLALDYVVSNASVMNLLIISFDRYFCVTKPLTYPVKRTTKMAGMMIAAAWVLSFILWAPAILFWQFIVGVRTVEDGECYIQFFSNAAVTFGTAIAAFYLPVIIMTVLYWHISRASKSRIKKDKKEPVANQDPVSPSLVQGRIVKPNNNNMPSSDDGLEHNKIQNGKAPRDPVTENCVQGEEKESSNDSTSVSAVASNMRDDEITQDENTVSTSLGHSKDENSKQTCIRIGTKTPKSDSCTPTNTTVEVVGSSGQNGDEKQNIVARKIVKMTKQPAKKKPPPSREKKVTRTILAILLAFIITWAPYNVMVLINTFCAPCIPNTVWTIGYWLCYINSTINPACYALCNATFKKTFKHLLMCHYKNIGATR
Procedure: hM2 Receptor GTPγS Binding Membranes produced from Chinese hamster ovary cells (CHO) expressing the cloned human M2 receptor (human Muscarinic receptor subtype 2, gene bank access NM_000739), are obtained from Perkin-Elmer (RBHM2M). The membranes are thawed at 37° C., passed 3 times through a 23-gauge blunt-end needle, diluted in the GTPγS binding buffer (50 mM Hepes, 20 mM NaOH, 100 mM NaCl, 1 mM EDTA, 5 mM MgCl2, pH 7.4, 100 μM DTT). The EC50, IC50 and Emax of the compounds of the invention are evaluated from 10-point dose-response curves (three fold concentration range) done in 60 μl in 384-well non-specific binding surface plate (Corning). Ten microliters from the dose-response curves plate (5× concentration) are transferred to another 384 well plate containing 25 μl of the following: 5 μg of hM2 membranes, 500 μg of Flashblue beads (Perkin-Elmer) and GDP 25 μM. An additional 15 μl containing 3.3× (60,000 dpm) of GTPγ^35S (0.4 nM final) are added to the wells resulting in a total well volume of 50 μl. Basal and maximal stimulated [^35S]GTPγS binding are determined in absence and presence of 30 μM final of acetylcholine agonist. The membranes/beads mix are pre-incubated for 15 minutes at room temperature with 25 μM GDP prior to distribution in plates (12.5 μM final). The reversal of acetylcholine-induced stimulation (2 μM final) of [^35S]GTPγS binding is used to assay the antagonist properties (IC50) of the compounds. The plates are incubated for 60 minutes at room temperature then centrifuged at 400 rpm for 5 minutes. The radioactivity (cpm) is counted in a Trilux (Perkin-Elmer). Values of EC50, IC50 and Emax are obtained using sigmoidal fits of a non-linear curve-fitting program (XLfit version 4.2.2 Excel add-in version 4.2.2 build 18 math 1Q version 2.1.2 build 18) of percent stimulated [^35S]GTPγS binding vs. log(molar ligand). All pEC50 and pIC50 values are reported as arithmetic means±standard error of mean of ‘n’ independent experiments.

O=C1CO[C@H]2CCCC[C@@H]2N1C1CCN(C2CCC(COCC(F)F)CC2)CC1 (single isomer, unassigned) [Example 27]
pEC50 [1]: 8.38
pEC50 (cloned human M2 receptor): 6.06

CC(C)OCC1CCC(N2CCC(N3C(=O)NC[C@H]4CCCC[C@@H]43)CC2)CC1 (single isomer, unassigned) [Example 04]
pEC50 [1]: 8.49
pEC50 (cloned human M2 receptor): 6.18

O=C1CO[C@H]2CCCC[C@@H]2N1C1CCN(C2CCC(COCC3CC3)CC2)CC1 (single isomer, unassigned) [Example 22]
pEC50 [1]: 8.25
pEC50 (cloned human M2 receptor): 6.00

CC(C)OCC1CCC(N2CCC(N3C(=O)CO[C@H]4CCC(F)(F)C[C@@H]43)CC2)CC1 (single isomer, unassigned) [Example 37]
pEC50 [1]: 7.47
pEC50 (cloned human M2 receptor): < 4.89

CCCOCC1CCC(N2CCC(N3C(=O)NC[C@H]4CCCC[C@@H]43)CC2)CC1 (single isomer, unassigned) [Example 02]
pEC50 [1]: 8.70
pEC50 (cloned human M2 receptor): 6.62

O=C1CO[C@H]2CCCC[C@@H]2N1C1CCN(C2CCC(COCCF)CC2)CC1 (single isomer, unassigned) [Example 25]
pEC50 [1]: 8.02
pEC50 (cloned human M2 receptor): < 5.57

O=C1COC2CCCC2N1C1CCN([C@H]2CC[C@@H](COCC3CC3)CC2)CC1 (single isomer, unassigned) [Example 48]
pEC50 [1]: 7.82
pEC50 (cloned human M2 receptor): 5.66

O=C1CO[C@H]2CCCC[C@@H]2N1C1CCN(C2CCC(COCC3CC3)CC2)CC1 (single isomer, unassigned) [Example 23]
pEC50 [1]: 7.42
pEC50 (cloned human M2 receptor): < 5.92

CCOCC1CCC(N2CCC(N3C(=O)CO[C@H]4CCCC[C@@H]43)CC2)CC1 (single isomer, unassigned) [Example 13]
pEC50 [1]: 7.77
pEC50 (cloned human M2 receptor): < 4.68

O=C1CO[C@H]2CCCC[C@@H]2N1C1CCN(C2CCC(COCCF)CC2)CC1 (single isomer, unassigned) [Example 24]
pEC50 [1]: 7.39
pEC50 (cloned human M2 receptor): < 5.24

CCCOC1CCC(N2CCC(N3C(=O)CO[C@H]4CCCC[C@@H]43)CC2)CC1 (single isomer, unassigned) [Example 17]
pEC50 [1]: 7.06
pEC50 (cloned human M2 receptor): < 4.32

CCOC[C@@H]1CC[C@H](N2CCC(N3C(=O)CO[C@H]4CCCC[C@@H]43)CC2)C1 [Example 43, (4aS,8aS)-4-(1-((1S,3R)-3-(ethoxymethyl)cyclopentyl)piperidin-4-yl)hexahydro-2H-benzo[b][1,4]oxazin-3(4H)-one]
pEC50 [1]: 7.92
pEC50 (cloned human M2 receptor): < 5.41

O=C1CO[C@H]2CCCC[C@@H]2N1C1CCN(C2CCC(COCC(F)F)CC2)CC1 (single isomer, unassigned) [Example 26]
pEC50 [1]: 7.77
pEC50 (cloned human M2 receptor): < 5.44

CC(C)OCC1CCC(N2CCC(N3C(=O)CO[C@H]4CCCC[C@@H]43)CC2)CC1 (single isomer, unassigned) [Example 18]
pEC50 [1]: 8.11
pEC50 (cloned human M2 receptor): 5.46

CCOC[C@H]1CC[C@@H](N2CCC(N3C(=O)CO[C@H]4CCCC[C@@H]43)CC2)C1 [Example 42, (4aS,8aS)-4-(1-((1R,3S)-3-(ethoxymethyl)cyclopentyl)piperidin-4-yl)hexahydro-2H-benzo[b][1,4]oxazin-3(4H)-one]
pEC50 [1]: 8.38
pEC50 (cloned human M2 receptor): 5.80

CCOCC1CC(N2CCC(N3C(=O)CO[C@H]4CCCC[C@@H]43)CC2)C1 (single isomer, unassigned) [Example 39]
pEC50 [1]: 7.48
pEC50 (cloned human M2 receptor): 5.30

CCCOCC1CCC(N2CCC(N3C(=O)NC[C@H]4CCCC[C@@H]43)CC2)CC1 (single isomer, unassigned) [Example 01]
pEC50 [1]: 7.68
pEC50 (cloned human M2 receptor): 5.11

O=C1NC[C@H]2CCCC[C@@H]2N1C1CCN(C2CCC(COCC(F)F)CC2)CC1 (single isomer, unassigned) [Example 51]
pEC50 [1]: 7.64
pEC50 (cloned human M2 receptor): 5.52

O=C1CO[C@H]2CCCC[C@@H]2N1C1CCN(C2CC(COCC3CCC3)C2)CC1 (single isomer, unassigned) [Example 40]
pEC50 [1]: 7.24
pEC50 (cloned human M2 receptor): 5.36

CC(C)OCC1CCC(N2CCC(N3C(=O)CO[C@H]4CCC(F)(F)C[C@@H]43)CC2)CC1 (single isomer, unassigned) [Example 38]
pEC50 [1]: 7.74
pEC50 (cloned human M2 receptor): < 5.00

CCOCC1CCC(N2CCC(N3C(=O)CO[C@H]4CCCC[C@@H]43)CC2)CC1 (single isomer, unassigned) [Example 14]
pEC50 [1]: 8.00
pEC50 (cloned human M2 receptor): 5.55

CC(C)OCC1CCC(N2CCC(N3C(=O)CO[C@H]4CCCC[C@@H]43)CC2)CC1 (mixture of isomers) [Example 15, (4aS,8aS)-4-(1-(4-(isopropoxymethyl)cyclohexyl)piperidin-4-yl)hexahydro-2H-benzo[b][1,4]oxazin-3(4H)-one]
pEC50 [1]: 8.00
pEC50 (cloned human M2 receptor): 5.46

CC(C)OCC1CCC(N2CCC(N3C(=O)CO[C@H]4CCCC[C@@H]43)CC2)CC1 (single isomer, unassigned) [Example 19]
pEC50 [1]: 7.85
pEC50 (cloned human M2 receptor): 5.06

CCCOC1CCC(N2CCC(N3C(=O)NC[C@H]4CCCC[C@@H]43)CC2)CC1 (single isomer, unassigned) [Example 06]
pEC50 [1]: 7.39
pEC50 (cloned human M2 receptor): 5.60

CCOCC1CCC(N2CCC(N3C(=O)NC[C@H]4CCCC[C@@H]43)CC2)CC1 (mixture of isomers) [Example 08, (4aR,8aS)-1-(1-(4-(ethoxymethyl)cyclohexyl)piperidin-4-yl)octahydroquinazolin-2(1H)-one]
pEC50 [1]: 8.28
pEC50 (cloned human M2 receptor): 6.46

CCOCC1CCC(N2CCC(N3C(=O)CO[C@H]4CCCC[C@@H]43)CC2)C1 (single isomer, unassigned) [Example 45]
pEC50 [1]: 7.32
pEC50 (cloned human M2 receptor): 5.21
